In patent publication US4204063A, “N(Aminoalkyl)-naphthalimides and their derivatives” (priority 1977, dated 1980):
≈ marks a conversion by molar mass, not a printed value.

Tested on: He-La cells
Assay: cytotoxic activity on He-La cells (inhibition of cellular growth, protein determination)
Type: cell-based
Settings: Homo sapiens, HeLa, 72 h, read-out: ID50 (inhibitory dose 50, dose which inhibits cellular growth by 50%)
Experimental: Testing commences using a culture having approximately 125,000 cells per milliliter. They are dispersed with trypsin and are maintained in suspension by stirring until the moment they are placed in tubes.
After 72 hours the results are read.

Row | Compound | IC50 [µg/mL]
1 | Nc1cc2c3c(cccc3c1)C(=O)N(CCN1CCCC1)C2=O [Example 11, N-[2-(1-pyrrolidino)-ethyl]-3-amino-1,8-naphthalimide] | 1.5 (≈ 4.85 µM)

Same assay, conditions: Homo sapiens, HeLa; He-La cells, monolayer, 72 hours, protein determination (modified Lowry); read-out: ID50 (inhibitory dose 50, dose which inhibits cellular growth by 50%)

Row | Compound | IC50 [µg/mL]
2 | CN(C)CCCN1C(=O)c2cccc3cc(N)cc(c23)C1=O [Example 14, N-(3-dimethylaminopropyl)-3-amino-1,8-naphthalimide] | 5 (≈ 16.8 µM)
3 | O=C1c2cccc3cc(Cl)cc(c23)C(=O)N1CCN1CCOCC1 [Example 21, N-[2-(1-morpholino)-ethyl]-3-chloro-1,8-naphthalimide] | 100 (≈ 290 µM)
4 | CN(C)CCCN1C(=O)c2cccc3cc(Cl)cc(c23)C1=O [Example 22, N-(3-dimethylaminopropyl)-3-chloro-1,8-naphthalimide] | 2 (≈ 6.31 µM)
5 | CC(=O)Nc1cc2c3c(cccc3c1)C(=O)N(CCN(C)C)C2=O [Example 30, N-(2-dimethylaminoethyl)-3-acetylamino-1,8-naphthalimide] | 4 (≈ 12.3 µM)
6 | CN(C)N1C(=O)c2cccc3cc(N)cc(c23)C1=O [Example 17, N-dimethylamino-3-amino-1,8-naphthalimide] | 100 (≈ 392 µM)
7 | CCOC(=O)Nc1cc2c3c(cccc3c1)C(=O)N(CCN1CCCC1)C2=O [Example 29, N-[2-(1-pyrrolidino)-ethyl]-3-ethoxycarbonylamino-1,8-naphthalimide] | 10 (≈ 26.2 µM)
8 | CCN(CC)CCCN1C(=O)c2cccc3cc([N+](=O)[O-])cc(c23)C1=O [Example 2, N-(3-diethylaminopropyl)-3-nitro-1,8-naphthalimide] | 5 (≈ 14.1 µM)
9 | CN(C)CCN1C(=O)c2cccc3cc(C(C)(C)C)cc(c23)C1=O [Example 33, N-(2-dimethylaminoethyl)-3-tert-butyl-1,8-naphthalimide] | 14 (≈ 43.2 µM)
10 | CN1CCN(CCCN2C(=O)c3cccc4cc(N)cc(c34)C2=O)CC1 [Example 16, N-[3-(4-methyl-1-piperazino)-propyl]-3-amino-1,8-naphthalimide] | 10 (≈ 28.4 µM)
11 | O=C1c2cccc3cc([N+](=O)[O-])cc(c23)C(=O)N1N1CCCC1 [Example 7, N-(1-pyrrolidino)-3-nitro-1,8-naphthalimide] | > 100
12 | O=C1c2cccc3cc(Cl)cc(c23)C(=O)N1CCN1CCCCC1 [Example 20, N-[2-(1-piperidino)-ethyl]-3-chloro-1,8-naphthalimide] | 3.5 (≈ 10.2 µM)
13 | Nc1cc2c3c(cccc3c1)C(=O)N(CCN1CCOCC1)C2=O [Example 13, N-[2-(1-morpholino)-ethyl]-3-amino-1,8-naphthalimide] | 10 (≈ 30.7 µM)
14 | O=C1c2cccc3cc(O)cc(c23)C(=O)N1CCN1CCCC1 [Example 24, N-[2-(1-pyrrolidino)-ethyl]-3-hydroxy-1,8-naphthalimide] | 3.5 (≈ 11.3 µM)
15 | CN(C)CCCN1C(=O)c2cccc3cc([N+](=O)[O-])cc(c23)C1=O [Example 1, N-(3-dimethylaminopropyl)-3-nitro-1,8-naphthalimide] | 1 (≈ 3.05 µM)
16 | CN(C)N1C(=O)c2cccc3cc([N+](=O)[O-])cc(c23)C1=O [Example 6, N-dimethylamino-3-nitro-1,8-naphthalimide] | > 100
17 | NC(=O)NN1C(=O)c2cccc3cc([N+](=O)[O-])cc(c23)C1=O [Example 8, N-ureyl-3-nitro-1,8-naphthalimide] | > 100

Row | Compound | IC50 [µg/mL]
18 | O=C1c2cccc3cc([N+](=O)[O-])cc(c23)C(=O)N1CCN1CCOCC1 [Example 3, N-2-(N-morpholino)-ethyl-3-nitro-1,8-naphthalimide] | 20 (≈ 56.3 µM)
19 | CN(C)CCN1C(=O)c2cccc3cc(N)cc(c23)C1=O [Example 9] | 2.5 (≈ 8.82 µM)
20 | CCN(CC)CCN1C(=O)c2cccc3cc(N)cc(c23)C1=O [Example 10, N-(2-diethylaminoethyl)-3-amino-1,8-naphthalimide] | 3 (≈ 9.63 µM)
21 | CN(C)CCN1C(=O)c2cccc3cc(Cl)cc(c23)C1=O [Example 18, N-(2-dimethylaminoethyl)-3-chloro-1,8-naphthalimide] | 0.8 (≈ 2.64 µM)
22 | COc1cc2c3c(cccc3c1)C(=O)N(CCN1CCCC1)C2=O [Example 27, N-[2-(1-pyrrolidino)-ethyl]-3-methoxy-1,8-naphthalimide] | 0.75 (≈ 2.31 µM)
23 | CN1CCN(CCCN2C(=O)c3cccc4cc([N+](=O)[O-])cc(c34)C2=O)CC1 [Example 5, N-3-(4-methyl-1-piperazino)-propyl-3-nitro-1,8-naphthalimide] | 2 (≈ 5.23 µM)
24 | O=C1c2cccc3cc(O)cc(c23)C(=O)N1CCN1CCOCC1 [Example 25, N-[2-(1-morpholino)-ethyl]-3-hydroxy-1,8-naphthalimide] | 100 (≈ 306 µM)
25 | CCN(CC)CCCN1C(=O)c2cccc3cc(N)cc(c23)C1=O [Example 15, N-(3-diethylaminopropyl)-3-amino-1,8-naphthalimide] | 25 (≈ 76.8 µM)
26 | CCOC(=O)Nc1cc2c3c(cccc3c1)C(=O)N(CCN(C)C)C2=O [Example 28, N-(dimethylaminoethyl)-3-ethoxycarbonylamino-1,8-naphthalimide] | 10 (≈ 28.1 µM)
27 | O=C1c2cccc3cc(S(=O)(=O)O)cc(c23)C(=O)N1CCN1CCCC1 [Example 32, N-[2-(1-pyrrolidino)ethyl]-3-sulfo-1,8-naphthalimide] | > 100
28 | Nc1cc2c3c(cccc3c1)C(=O)N(CCN1CCCCC1)C2=O [Example 12, N-[2-(1-piperidino)-ethyl]-3-amino-1,8-naphthalimide] | 8 (≈ 24.7 µM)
29 | CN(C)CCN1C(=O)c2cccc3cc(O)cc(c23)C1=O [Example 23, N-(2-dimethylaminoethyl)-3-hydroxy-1,8-naphthalimide] | 3 (≈ 10.6 µM)
30 | O=C1c2cccc3cc(Cl)cc(c23)C(=O)N1CCN1CCCC1 [Example 19, N-[2-(1-pyrrolidino)-ethyl]-3-chloro-1,8-naphthalimide] | 1.5 (≈ 4.56 µM)
31 | COc1cc2c3c(cccc3c1)C(=O)N(CCN(C)C)C2=O [Example 26, N-(2-dimethylaminoethyl)-3-methoxy-1,8-naphthalimide] | 1.5 (≈ 5.03 µM)
32 | CC(=O)Nc1cc2c3c(cccc3c1)C(=O)N(CCN1CCCC1)C2=O [Example 31, N-[2-(1-pyrrolidino)-ethyl]-3-acetylamino-1,8-naphthalimide] | 5 (≈ 14.2 µM)
33 | CCN1CCCC(N2C(=O)c3cccc4cc([N+](=O)[O-])cc(c34)C2=O)C1 (stereo not drawn) [Example 4, N-3-(1-ethylpiperidino)-3-nitro-1,8-naphthalimide] | 6 (≈ 17 µM)
